Source: patent publication US5561047A, “Method of identifying effectors of integrin activation” (priority 1994, dated 1996)
pEC50, pIC50: −log10 of the molar value. Where two headings read alike, the source gives them in different places. One block for each molecule: values may come before it.

Assays:
[1] = molecular target: T1, integrin αIIb β3 (washed human platelets) (Homo sapiens, UniProt P05106+P08514); experiment: integrin activation ELISA: biotin-PAC1 binding to intact washed platelets; format: cell-based; details: for extent of biotin-PAC1 binding at maximal agonist concentrations: comparison of thrombin, PMA and ADP; for αIIb β3 activation: physiological agonists
T1 construct: endogenous in cells; host or cells: washed human platelets from whole blood of healthy volunteers
Method: Platelet incubations were carried out in wells of Falcon flexible polyvinyl chloride (PVC) microtitre plates with 96 U-bottom wells (Becton Dickinson, San Jose, Calif.). ELISA reactions were carried out in 96 well Immulon II polystyrene plates (Dynatech Laboratories, Inc., Chantilly, Va.) that had been precoated with streptavidin. This was accomplished by addition of 75 μl/well of streptavidin (1.25 μg/ml) for 16 hours at 4°, followed by washing four times with 200 μl of 1% TWEEN(polyethylenesorbit -20 in phosphate-buffered saline (PBS), pH 7.4, blocking with 200 μl of 1% bovine serum albumin in PBS for 2 hours at room temperature, and washing again. These plates could be stored at -20° for at least 3 months prior to use in the assay.
(§1) Whole blood was obtained from healthy, drug-free volunteers and anticoagulated with a 1:6 volume of acid-citrate-dextrose formula A. Platelet-rich plasma was collected by centrifugation at 180×g for 20 minutes, incubated for 5 minutes with 1 μM prostaglandin E1 and 1 unit/ml apyrase, then sedimented at 500×g for 10 minutes and resuspended in 5 ml of 2 wash buffer containing 20 mM HEPES, 0.15 M NaCl, 0.1% glucose, 1 μM prostaglandin E1, 1 unit/ml apyrase, and 1.5 mM EDTA, pH 7.4. After another centrifugation at 500×g for 20 minutes, the platelets were finally resuspended to 5.8×10^8 /ml in an incubation buffer containing 137 mM NaCl, 2.7 mM KCl, 1.0 mM MgCl2, 3.3 mM NaH2 PO4, 0.1% glucose, 0.1% bovine serum albumin, and 20 mM HEPES, pH 7.35.
Fifty-five μl of washed platelets were added in triplicate to wells of PVC plates containing 10 μl of the desired agonist (or the activation inhibitor, PGI2) and 25 μl of the desired inhibitory test compound (or the equivalent vehicle as a diluent). After 10 minutes at 37° without shaking, 10 μl of biotin-PAC1 were added to achieve a final antibody concentration of 0.5 μg/ml and a platelet concentration of 3.2×10^8 /ml. After a further 15 minutes incubation at room temperature without shaking, the microtitre plates were centrifuged at 2800 rpm for 10 minutes to sediment the platelets, conditions under which essentially all of the platelets were removed from the supernatant.
After platelet centrifugation, 50 μl of supernatant from each well were transferred to corresponding wells of streptavidin-coated plates and incubated for 30 minutes at room temperature. Each well was then washed four times with 200 μl of PBS/Tween, followed by addition of 50 μl of goat anti-mouse IgM-horseradish peroxidase conjugate (1:1500). After incubation for 60 minutes at room temperature, the plates were again washed four times with PBS/Tween, followed by addition of 50 μl of a reaction mixture containing 1 mg/ml o-phenylenediamine dihydrochloride and 0.012% H2 O2 in 0.1 M citrate buffer, pH 4.5. After a final 20 minutes at room temperature, reactions were stopped with 25 μl of 4 N HCl, and formation of the reaction product was measured at 490 nm in a THERMOmax microplate reader (Molecular Devices, Inc.)
Triplicate aliquots of washed human platelets were incubated in microtitre wells at a final volume of 90 μl in the presence of a platelet agohist such as PMA or thrombin, in order to convert αIIb β3 into a high affinity, ligand-competent state. Compounds that were being tested for their ability to inhibit αIIb β3 were also added to some of the wells at this stage. Other wells contain PGI2 (0.2 μM), a potent platelet activation inhibitor, to purposely maintain αIIb β3 in a low-affinity state. After 10 minutes at 37°, 10 μl of a subsaturating and limiting concentration of biotin-PAC1 was added to each well and the incubation was continued for an additional 15 minutes at room temperature.
The microtitre plates were then centrifuged at 2800 rpm for 10 minutes in order to sediment the platelets. […] In contrast, platelets in wells containing an agonist have bound biotinPAC1. […]

[2] = system: integrin αIIb β3 (washed platelets); experiment: flow cytometry of FITC-PAC1 binding to washed platelets; format: cell-based, human; details: washed platelets stimulated for 15 minutes with 0.2 mM phorbol myristate acetate; representative experiment
Method: as §1
Assay variables in each step of the assay were examined systematically. […] Flow cytometry was used to assess the activation state of the platelets using FITC-PAC1 as the activation marker (Shattil et al., Blood 1987, 70, 307). No activation of washed platelets was detected. In a representative experiment, mean FITC-PAC1 binding to washed platelets was 22 arbitrary fluorescence units, a value identical to that obtained with platelets in whole blood or in platelet-rich plasma. FITC-PAC1 binding to washed platelets that had been stimulated for 15 minutes with 0.2 mM phorbol myristate acetate amounted to 1,776 fluorescence units.

[3] = system: αIIb β3; details: PMA 0.2 μM; Shattil et al., Blood 1987; cited from earlier work
[4] = system: "internal" pool of activated αIIb β3; details: unstirred platelets; Woods et al. 1986; cited from earlier work
[5] = system: platelet aggregation and secretion; details: Sless, Physiol. Rev. 1989; cited from earlier work
[6] = system: protein kinase C; details: Toullec et al. 1991; cited from earlier work

T1 sequence (P08514 32-887 limits assumed): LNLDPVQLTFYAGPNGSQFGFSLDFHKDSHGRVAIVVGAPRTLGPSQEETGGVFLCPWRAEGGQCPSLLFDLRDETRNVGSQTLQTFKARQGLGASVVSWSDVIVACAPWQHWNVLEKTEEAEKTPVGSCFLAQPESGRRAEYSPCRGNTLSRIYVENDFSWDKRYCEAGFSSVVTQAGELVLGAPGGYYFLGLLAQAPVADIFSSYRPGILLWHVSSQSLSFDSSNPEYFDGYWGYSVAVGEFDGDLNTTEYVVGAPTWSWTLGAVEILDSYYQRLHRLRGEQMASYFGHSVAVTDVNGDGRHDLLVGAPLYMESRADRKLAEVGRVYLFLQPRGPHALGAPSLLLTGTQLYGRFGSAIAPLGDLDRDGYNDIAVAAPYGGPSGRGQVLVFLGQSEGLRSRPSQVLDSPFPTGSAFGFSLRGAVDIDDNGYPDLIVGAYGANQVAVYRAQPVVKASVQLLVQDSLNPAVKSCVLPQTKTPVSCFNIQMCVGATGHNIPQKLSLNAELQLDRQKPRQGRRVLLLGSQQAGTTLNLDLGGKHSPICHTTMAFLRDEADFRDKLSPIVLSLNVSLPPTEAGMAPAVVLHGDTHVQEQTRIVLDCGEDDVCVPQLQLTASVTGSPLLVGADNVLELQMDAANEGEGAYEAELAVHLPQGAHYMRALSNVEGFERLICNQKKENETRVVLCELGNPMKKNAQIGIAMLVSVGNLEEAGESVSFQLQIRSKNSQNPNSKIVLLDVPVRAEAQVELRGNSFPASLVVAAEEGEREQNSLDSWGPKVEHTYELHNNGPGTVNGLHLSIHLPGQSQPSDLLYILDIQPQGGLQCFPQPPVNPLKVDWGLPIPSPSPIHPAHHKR
T1 sequence (P08514 891-1039 limits assumed): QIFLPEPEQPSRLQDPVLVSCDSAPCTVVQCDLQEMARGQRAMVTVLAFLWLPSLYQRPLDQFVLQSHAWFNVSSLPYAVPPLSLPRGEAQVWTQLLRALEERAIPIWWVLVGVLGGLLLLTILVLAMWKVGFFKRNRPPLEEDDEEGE
T1 sequence (P05106 27-788): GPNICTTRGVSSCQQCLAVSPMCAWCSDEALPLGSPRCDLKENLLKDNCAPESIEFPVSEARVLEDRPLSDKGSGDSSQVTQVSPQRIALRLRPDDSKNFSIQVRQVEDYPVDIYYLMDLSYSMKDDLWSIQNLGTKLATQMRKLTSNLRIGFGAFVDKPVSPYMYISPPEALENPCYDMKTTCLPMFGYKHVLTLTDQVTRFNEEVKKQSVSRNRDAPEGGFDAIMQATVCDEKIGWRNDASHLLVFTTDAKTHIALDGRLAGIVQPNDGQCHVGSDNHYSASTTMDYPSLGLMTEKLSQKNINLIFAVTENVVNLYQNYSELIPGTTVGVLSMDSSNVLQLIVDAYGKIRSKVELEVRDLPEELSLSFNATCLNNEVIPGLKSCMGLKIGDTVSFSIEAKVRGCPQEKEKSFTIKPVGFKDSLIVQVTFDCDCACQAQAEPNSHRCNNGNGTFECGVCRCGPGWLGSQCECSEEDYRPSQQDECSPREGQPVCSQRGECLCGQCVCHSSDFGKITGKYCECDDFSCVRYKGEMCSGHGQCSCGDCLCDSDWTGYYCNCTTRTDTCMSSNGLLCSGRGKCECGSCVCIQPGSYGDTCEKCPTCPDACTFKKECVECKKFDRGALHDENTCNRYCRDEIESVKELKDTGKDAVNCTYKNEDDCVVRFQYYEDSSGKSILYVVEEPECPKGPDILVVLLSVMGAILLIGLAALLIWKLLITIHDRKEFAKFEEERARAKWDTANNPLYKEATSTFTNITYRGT

Molecule: RGES
inhibition of biotin-PAC1 binding to activated platelets ([1]; activated platelets): ineffective

Molecule: CCCCCCCCCCCCCC(=O)O[C@@H]1[C@@H](C)[C@@]2(O)[C@@H](C=C(CO)C[C@]3(O)C(=O)C(C)=C[C@@H]23)[C@@H]2C(C)(C)[C@]12OC(C)=O [PMA, phorbol myristate acetate]
activation of αIIb β3 in the integrin activation ELISA ([1]; PMA 0.2 μM): maximal activation of αIIb β3 | amount of biotin-PAC1 remaining in supernatant ([1]; PMA 0.2 μM, 0.5 μg/ml biotin-PAC1, increasing number of activated platelets): decreased as the number of activated platelets in the well increased | extent of biotin-PAC1 binding at maximal agonist concentrations [1]: similar | mean FITC-PAC1 binding [2]: 1,776 fluorescence units | activation of αIIb β3 in conventional assays [3]: maximal activation of αIIb β3 | stimulation of surface expression of an internal pool of activated αIIb β3 [4]: stimulate the surface expression

pIC50 ([1]; activated platelets, read-out: IC50, inhibition of biotin-PAC1 binding to activated platelets): 6.40
Molecule: fibrinogen

extent of biotin-PAC1 binding at maximal agonist concentrations [1]: similar | concentration of maximal αIIb β3 activation ([1]; thrombin): 0.1 U/ml
Molecule: thrombin
αIIb β3 activation [1]: caused αIIb β3 activation in a dose-dependent manner | stimulation of surface expression of an internal pool of activated αIIb β3 [4]: stimulate the surface expression

Molecule: RGDS
inhibition of biotin-PAC1 binding to activated platelets ([1]; activated platelets): inhibited in a dose-dependent manner

Molecule: Nc1ncnc2c1ncn2[C@@H]1O[C@H](COP(=O)(O)OP(=O)(O)O)[C@@H](O)[C@H]1O [ADP]
pEC50 [1]: ~6.00 | concentration of maximal αIIb β3 activation ([1]; ADP): 10 µM | extent of biotin-PAC1 binding at maximal agonist concentrations [1]: less | αIIb β3 activation [1]: caused αIIb β3 activation in a dose-dependent manner

Molecule: antimycin A
inhibition of platelet aggregation and secretion [5]: block both platelet aggregation and secretion

Molecule: O=CC[C@@H](O)[C@H](O)[C@H](O)CO [2-Deoxyglucose]
inhibition of platelet aggregation and secretion [5]: block both platelet aggregation and secretion

Molecule: bisindolylmaleimide
concentration of complete inhibition of biotin-PAC1 binding ([1]; PMA-stimulated platelets): 20 µM | pIC50 ([1]; PMA-stimulated platelets, read-out: IC50, inhibition of biotin-PAC1 binding): ~6.00 | concentration maximally effective on protein kinase C in platelets [6]: 10 to 20 µM

biotin-PAC1 bound to platelets in wells containing PGI2 ([1]; PGI2 0.2 μM): do not have bound biotin-PAC1 | depletion of PAC1 from supernatant ([1]; PGI2-treated, unactivated platelets, any platelet concentration): No depletion of PAC1 was observed
Molecule: CCCCC[C@H](O)/C=C/[C@@H]1[C@H]2C/C(=C/CCCC(=O)O)O[C@H]2C[C@H]1O [PGI2, prostaglandin I2]
